PubChem BioAssay (NCI)
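Step 1: Grow cells in 96-well plates. Step 2: Expose to compound for 48 hours at 5 concentrations. Step 3: Interpolate endpoints linearly; if unreached, use highest concentration. Definition used: TGI = concentration required for complete inhibition of growth.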

Tests used:
Assay in all cases: NCI-60 cell line screen, 48 h
[1] = system: OVCAR-5 ovarian
[2] = system: M14 melanoma
[3] = system: CCRF-CEM leukemia
[4] = system: U251 CNS
[5] = system: MDA-N
[6] = system: OVCAR-4 ovarian
[7] = system: TK-10 renal
[8] = system: HOP-92 NSCLC
[9] = system: RXF 393 renal
[10] = system: MCF7 breast
[11] = system: NCI-H460 lung
[12] = system: UACC-257 melanoma
[13] = system: BT-549 breast
[14] = system: SK-MEL-28 melanoma
[15] = system: SK-MEL-5 melanoma
[16] = system: SR leukemia
[17] = system: CAKI-1 renal
[18] = system: HCT-15 colon
[19] = system: MALME-3M melanoma
[20] = system: K-562 leukemia
[21] = system: NCI-H522 lung
[22] = system: NCI-H23 lung
[23] = system: T-47D breast
[24] = system: UACC-62 melanoma
[25] = system: HCC-2998 colon
[26] = system: A549 NSCLC
[27] = system: SW-620 colon
[28] = system: IGROV1 ovarian
[29] = system: OVCAR-3 ovarian
[30] = system: ACHN renal
[31] = system: HOP-62 NSCLC
[32] = system: UO-31 renal
[33] = system: SF-295 CNS
[34] = system: MDA-MB-435
[35] = system: SNB-19 CNS
[36] = system: A498 renal
[37] = system: 786-0 renal
[38] = system: SK-OV-3 ovarian
[39] = system: NCI/ADR-RES ovarian
[40] = system: HCT-116 colon
[41] = system: MOLT-4 leukemia
[42] = system: OVCAR-8 ovarian
[43] = system: NCI-H226 lung
[44] = system: SF-268 CNS
[45] = system: PC-3 prostate
[46] = system: DU-145 prostate
[47] = system: HT29 colon
[48] = system: SN12C renal
[49] = system: KM12 colon
[50] = system: COLO 205 colon
[51] = system: HS 578T breast
[52] = system: MDA-MB-231 breast
[53] = system: SK-MEL-2 melanoma
[54] = system: EKVX NSCLC
[55] = system: SNB-75 CNS
[56] = system: SF-539 CNS
[57] = system: RPMI-8226 leukemia
[58] = system: HL-60(TB) leukemia
[59] = system: LOX IMVI melanoma

CCCCC/C=C1\CC(CO)(COC(=O)CC(C(C)C)C(C)C)OC1=O (stereo not drawn)
TGI [1]: 27.7 µM | TGI [2]: 32.4 µM | TGI [3]: > 100 µM | TGI [4]: 31.6 µM | TGI [5]: 26.4 µM | TGI [6]: 46.5 µM | TGI [7]: 36.8 µM | TGI [8]: 20.9 µM | TGI [9]: 33.9 µM | TGI [10]: 39.3 µM | TGI [11]: > 100 µM | TGI [12]: 45.6 µM | TGI [13]: 31 µM | TGI [14]: 36.2 µM | TGI [15]: 22.9 µM | TGI [16]: > 100 µM | TGI [17]: 24.3 µM | TGI [18]: 38.9 µM | TGI [19]: 31.9 µM | TGI [20]: 44.2 µM | TGI [21]: 33.6 µM | TGI [22]: 36.4 µM | TGI [23]: 55.1 µM | TGI [24]: 39 µM | TGI [25]: 32.6 µM | TGI [26]: 28.8 µM | TGI [27]: > 100 µM | TGI [28]: 31.8 µM | TGI [29]: 32.3 µM | TGI [30]: 28.7 µM | TGI [31]: 21.1 µM | TGI [32]: 28.6 µM | TGI [33]: 20 µM | TGI [34]: 22 µM | TGI [35]: 30.3 µM | TGI [36]: 33.7 µM | TGI [37]: 30.3 µM | TGI [38]: 38.7 µM | TGI [39]: 47 µM | TGI [40]: 44.4 µM | TGI [41]: 54.1 µM | TGI [42]: 32.1 µM | TGI [43]: 27.2 µM | TGI [44]: 35.5 µM | TGI [45]: 27.5 µM | TGI [46]: 44.9 µM | TGI [47]: 40.1 µM | TGI [48]: 31.8 µM | TGI [49]: 28.3 µM | TGI [50]: 15.3 µM | TGI [51]: 18.3 µM | TGI [52]: 40.2 µM | TGI [53]: 49 µM | TGI [54]: 30.3 µM | TGI [55]: 26.8 µM

O=C1Nc2ccccc2S/C1=C\c1ccc(C(F)(F)F)cc1
TGI [1]: > 100 µM | TGI [2]: > 100 µM | TGI [4]: > 100 µM | TGI [5]: > 100 µM | TGI [6]: > 100 µM | TGI [7]: > 100 µM | TGI [8]: > 100 µM | TGI [9]: > 100 µM | TGI [10]: > 100 µM | TGI [11]: > 100 µM | TGI [12]: > 100 µM | TGI [13]: > 100 µM | TGI [14]: > 100 µM | TGI [15]: > 100 µM | TGI [16]: > 100 µM | TGI [56]: > 100 µM | TGI [17]: 93.3 µM | TGI [18]: > 100 µM | TGI [19]: > 100 µM | TGI [57]: > 100 µM | TGI [20]: > 100 µM | TGI [21]: > 100 µM | TGI [23]: > 100 µM | TGI [24]: > 100 µM | TGI [26]: > 100 µM | TGI [27]: > 100 µM | TGI [28]: > 100 µM | TGI [29]: > 100 µM | TGI [30]: > 100 µM | TGI [31]: > 100 µM | TGI [58]: > 100 µM | TGI [32]: > 100 µM | TGI [33]: > 100 µM | TGI [34]: > 100 µM | TGI [35]: > 100 µM | TGI [36]: > 100 µM | TGI [37]: > 100 µM | TGI [38]: > 100 µM | TGI [39]: > 100 µM | TGI [40]: > 100 µM | TGI [41]: > 100 µM | TGI [42]: > 100 µM | TGI [43]: > 100 µM | TGI [44]: > 100 µM | TGI [45]: > 100 µM | TGI [46]: > 100 µM | TGI [47]: > 100 µM | TGI [48]: > 100 µM | TGI [49]: > 100 µM | TGI [50]: > 100 µM | TGI [51]: > 100 µM | TGI [52]: > 100 µM | TGI [59]: > 100 µM | TGI [53]: > 100 µM | TGI [54]: > 100 µM | TGI [55]: > 100 µM

Clc1cccc(Cl)c1C(Nc1nncs1)Nc1nncs1
TGI [1]: > 100 µM | TGI [2]: > 100 µM | TGI [4]: > 100 µM | TGI [5]: 25.5 µM | TGI [6]: > 100 µM | TGI [7]: 84.1 µM | TGI [8]: > 100 µM | TGI [9]: > 100 µM | TGI [10]: > 100 µM | TGI [11]: 68.5 µM | TGI [12]: 71.1 µM | TGI [13]: > 100 µM | TGI [14]: 54.5 µM | TGI [15]: > 100 µM | TGI [16]: > 100 µM | TGI [56]: > 100 µM | TGI [17]: > 100 µM | TGI [18]: > 100 µM | TGI [19]: > 100 µM | TGI [57]: > 100 µM | TGI [20]: > 100 µM | TGI [21]: 70.9 µM | TGI [22]: > 100 µM | TGI [23]: > 100 µM | TGI [24]: > 100 µM | TGI [26]: > 100 µM | TGI [27]: > 100 µM | TGI [28]: > 100 µM | TGI [29]: > 100 µM | TGI [30]: > 100 µM | TGI [31]: > 100 µM | TGI [58]: 43.9 µM | TGI [32]: > 100 µM | TGI [33]: > 100 µM | TGI [34]: 60.6 µM | TGI [35]: > 100 µM | TGI [36]: > 100 µM | TGI [37]: > 100 µM | TGI [38]: > 100 µM | TGI [39]: > 100 µM | TGI [40]: > 100 µM | TGI [41]: > 100 µM | TGI [42]: > 100 µM | TGI [43]: 99.7 µM | TGI [44]: > 100 µM | TGI [45]: > 100 µM | TGI [46]: > 100 µM | TGI [47]: > 100 µM | TGI [48]: > 100 µM | TGI [49]: > 100 µM | TGI [50]: > 100 µM | TGI [51]: > 100 µM | TGI [52]: > 100 µM | TGI [59]: > 100 µM | TGI [53]: > 100 µM | TGI [54]: > 100 µM | TGI [55]: > 100 µM
